Test results from patent publication EP0232423A1, “CIRCULATION IMPROVING AGENT” (GRELAN PHARMACEUTICAL CO., LTD., priority 1985, dated 1987).
Counter-ions that a name gives are not always drawn.

Experiments:
α2-adrenoceptor = assay: Antagonism of clonidine (α2-agonist) contraction in saphenous vein; assay type: cell-based, Mongrel dogs; settings: α2 - agonist: clonidine, competitive antagonism, 15 min
From the text: In this experiment, phenylephrine and clonidine were used as al-agonist and a2-agonist, respectively, and these agonists were cumulatively applied to obtain a dose-response curve.

platelets of rabbit = assay: Fluidity of platelet membrane (fluorescence polarization); assay type: cell-based; set-up: Fluorescence polarization: unit not given here; settings: for Fluorescence polarization: fluidity increases as value decreases
From the text: The activity of compound (I) (lactate) and ifenprodil tartrate against the fluidity of platelet membrane was examined according to a known method (Biochimica et Biophysica Acta, vol. 798, page 210, 1984) using platelets of rabbit and using n-butyl alcohol as a positive control.

ddY male mice = assay: Prolongation of gasping time in complete cerebral ischemic (decapitated) animals; assay type: in vivo; settings: for Ratio of time (%): prolongation as compared with the control group; for Duration time of gasping: decapitated after 30 minutes
Description: After 30 minutes from administration, the.mice were decapitated and the duration time of gasping was measured. The control group was drug-untreated.

## CC(C(O)c1ccc(O)cc1)N1CCC(Cc2ccccc2)CC1 (stereo not drawn) [Ifenprodil tartrate]
α2-adrenoceptor
  pA2 value: 8.31
Platelets of rabbit
  effect on fluidity of platelet membrane: no such activity
Platelets of rabbit; 1 µM
  Fluorescence polarization: 7
Platelets of rabbit; 10 µM
  Fluorescence polarization: 13±7
Platelets of rabbit; 100 µM
  Fluorescence polarization: 3±3
ddY male mice; 10 mg/kg i.p.
  Ratio of time (%): 10.0%
ddY male mice; 10 mg/kg intraperitoneally
  Duration time of gasping: 23.0 ± 0.5 s
ddY male mice; 30 mg/kg i.p.
  Ratio of time (%): 28.7%
ddY male mice; 30 mg/kg intraperitoneally
  Duration time of gasping: 26.9 ± 1.2 s
